{"source": "patent US20020023385A1", "about": "“Method of controlling seed disease” (priority 2000, published 2002)"}
{"tested_on": "Xanthomonas campestris p.v. campestris", "assay": "Cross-streak culture screening for antagonistic bacteria", "type": "cell-based", "settings": "cross application on potato dextrose-broth-agar medium, 25° C., 3 days", "experimental": "Filamentous fungi and bacteria (hereinafter referred to as “candidate microorganisms” in general) isolated from a seed or a soil is streaked on a same medium as that of the pathogenic microorganisms of the seed borne disease which is a target to be controlled in a dual or cross manner and are cultured for several days under a temperature suitable for growing the pathogenic microorganisms (dual culture). After the microorganism have been cultured, growth thereof are observed; then, the one which apparently controlled the growth of the pathogenic microorganisms by the candidate microorganism is selected as the effective microorganism which has an antagonistic property (Laboratory Guide for Plant Pathology and Microbiology, 459-474, Satoshi Wakimoto et al., Soft Science Inc., 1993).\nEach type of the above-described seeds was shaken in a physiological saline solution (a distilled water solution containing 0.85 weight % of sodium chloride) having 2.5 times the weight of the seeds for 2.5 hours. Then, the solution was evenly streaked on an albumin-agar culture medium. In six days after streaking, a colony which has emerged was isolated and, then, streaked on a potato dextrose-broth-agar culture medium (available from Difco Laborarories, Mich., U.S.A.) in a cross application manner against Xanthomonas campestris p.v. campestris to be cultured at 25° C. […] As a result, three bacterial strains under names of TK-12, TK-151, and TK-185 were obtained. Taxonomic properties of these three strains are shown below in Table 1."}
{"substance": "Leclercia adecarboxylata TK-151", "control of growth of Xanthomonas campestris p.v. campestris": "controls growth of such Xanthomonas campestris p.v. campestris"}
{"substance": "Pantoea sp. TK-185", "control of growth of Xanthomonas campestris p.v. campestris": "controls growth of such Xanthomonas campestris p.v. campestris"}
{"substance": "Pantoea sp. TK-12", "control of growth of Xanthomonas campestris p.v. campestris": "controls growth of such Xanthomonas campestris p.v. campestris"}
